molecular target: T1, type-1 15-PGDH (Homo sapiens, UniProt P15428); test: Test on type-1 15-PGDH (spectrophotometric, 340 nm, maximum reaction rate); type: biochemical; conditions: IC50dh; 37° C., pH 7.4; read-out: Inhibition of 15-PGDH IC50
T1 construct: made in house
T1 sequence (P15428 1-266): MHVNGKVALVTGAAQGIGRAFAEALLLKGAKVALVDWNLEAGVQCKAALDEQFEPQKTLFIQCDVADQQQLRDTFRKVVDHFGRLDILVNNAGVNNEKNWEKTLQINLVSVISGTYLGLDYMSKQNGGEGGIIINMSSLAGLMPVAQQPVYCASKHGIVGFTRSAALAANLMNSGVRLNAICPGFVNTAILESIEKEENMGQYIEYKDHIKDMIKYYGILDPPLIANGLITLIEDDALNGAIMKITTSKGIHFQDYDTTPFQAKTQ
Description: 1) Test on type-1 15-PGDH:
(§1) For the purposes of the test, this suspension is thawed and stored in ice.
(§2) 0.965 ml of this buffer (brought to 37° C. beforehand) is introduced into the cuvette of a spectrophotometer (Perkin-Elmer, Lambda 2) thermostatically maintained at 37° C., the measuring wavelength of which is set at 340 nm. 0.035 ml of enzymatic suspension at 37° C. is introduced into the cuvette concomitantly with the recording (corresponding to an increase in the optical density at 340 nm). The maximum reaction rate is recorded.

| IC50 | SMILES |
| --- | --- |
| 16 µM | O=C(COc1cccc(Cl)c1)NCc1ccco1 [Compound 23] |

same assay, conditions: compound at 50 μM

| inhibition at 50 µM | SMILES |
| --- | --- |
| 63% | O=C(COC1CCCCC1)NCc1ccccc1 [Compound 21] |
| 47% | CCCCCCOCC(=O)NCc1ccccc1 [Compound 22] |
| 80% | O=C(COc1cccc(Cl)c1)NCc1ccco1 [Compound 23] |
| 55% | O=C(COc1ccccc1)NCc1ccccc1 [Compound 24] |
| 50% | O=C(COc1cccc(Cl)c1)NCc1ccccc1 [Compound 25] |
| 30% | O=C(COc1ccc(Cl)cc1)NCc1ccccc1 [Compound 26] |

same assay, conditions: compound at 100 μM; 37° C., pH 7.4, PGE2 50 μM, β-NAD 1.5 mM

| inhibition at 100 µM | SMILES |
| --- | --- |
| 50% | O=C(COCc1ccccc1)NC[C@@H]1CCCO1 (stereo in doubt) [Compound 14, 2-benzyloxy-N-(tetrahydrofuran-2-ylmethyl)acetamide] |
| 49% | Cc1cccc(C)c1NC(=O)COc1cccc2cccnc12 [Compound 1, N-(2,6-dimethylphenyl)-2-(quinolin-8-yloxy)acetamide] |
| 115% | O=C(COc1cccc2cccnc12)Nc1ccccc1Cl [Compound 2] |
| 128% | O=C(COc1cccc2cccnc12)Nc1ccccc1C(F)(F)F [Compound 3, 2-(quinolin-8-yloxy)-N-(2-trifluoromethylphenyl)acetamide] |
| 49% | CCOC(=O)c1ccc(NC(=O)COc2ccc(C(C)=O)cc2)cc1 [Compound 4, 4-[2-(4-Acetylphenoxy)acetylamino]benzoic acid ethyl] |
| 53% | Cc1nc2cc(OCC(=O)Nc3ccc(OC(F)(F)F)cc3)ccc2s1 [Compound 5, 2-(2-Methyl-benzothiazol-5-yloxy)-N-(4-trifluoromethoxy-phenyl) acetamide] |
| 54% | O=C(COc1ccc(-n2ccnc2)cc1)Nc1ccccc1Cl [Compound 6, N-(2-Chloro-phenyl)-2-(4-imidazol-1-yl-phenoxy)-acetamide] |
| 61% | O=C(COc1ccc2c(c1)C(=O)c1ccccc1-2)Nc1cccc(C(F)(F)F)c1 [Compound 7, 2-(9-Oxo-9H-fluoren-2-yloxy)-N-(3-trifluoromethyl-phenyl) acetamide] |
| 65% | O=C(COc1ccc2c(c1)C(=O)c1ccccc1-2)Nc1ccc(C(F)(F)F)cc1 [Compound 8, 2-(9-Oxo-9H-fluoren-2-yloxy)-N-(4-trifluoromethyl-phenyl) acetamide] |
| 69% | CCCCCCc1ccc(NC(=O)COc2ccc3sc(C)nc3c2)cc1 [Compound 9, N-(4-Hexyl-phenyl)-2-(2-methyl-benzothiazol-5-yloxy) acetamide] |
| 71% | O=C(COc1ccc(-n2cccc2)cc1)Nc1ccccc1C(F)(F)F [Compound 10] |
| 74% | O=C(COc1ccc2oc3ccccc3c2c1)Nc1ccc(OC(F)(F)F)cc1 [Compound 11, 2-(Dibenzofuran-2-yloxy)-N-(4-trifluoromethoxy-phenyl) acetamide] |
| 125% | O=C(COc1ccc(-n2ccnc2)cc1)Nc1ccccc1C(F)(F)F [Compound 12, 2-(4-imidazol-1-yl-phenoxy)-N-(2-trifluoromethyl-phenyl) acetamide] |
| 126% | COc1cc(C(C)=O)ccc1OCC(=O)Nc1ccccc1C(F)(F)F [Compound 13, 2-(4-Acetyl-2-methoxy-phenoxy)-N-(2-trifluoromethyl-phenyl) acetamide] |
| 51% | Cc1ccc(CNC(=O)COCc2ccccc2)o1 [Compound 15, 2-Benzyloxy-N-(5-methyl-furan-2-ylmethyl)-acetamide] |
| 76% | O=C(COCc1ccccc1)NC1CCCC1 [Compound 16, 2-Benzyloxy-N-cyclopentylacetamide] |
| 85% | CSCCNC(=O)COc1ccccc1 [Compound 20] |
| 48% | O=C(COCc1ccccc1)NCc1ccccc1 [Compound 27] |
| 54% | N#Cc1ccc(-c2ccc(OCC(=O)Nc3cccc([N+](=O)[O-])c3)cc2)cc1 [Compound 28] |
| 54% | O=C(COc1ccccc1)NC[C@@H]1CCCO1 [Compound 29] |
| 57% | CCCCCCNC(=O)COc1ccccc1 [Compound 31] |
| 59% | CC(=O)c1ccc(OCC(=O)Nc2ccccc2C(F)(F)F)cc1 [Compound 32] |
| 61% | O=C(COc1ccccc1)NCc1ccccc1 [Compound 33] |
| 69% | O=C(COc1cccc2cccnc12)Nc1cccc([N+](=O)[O-])c1 [Compound 34] |
| 70% | O=C(COc1ccc(-c2ccccc2)cc1)Nc1ccccc1C(F)(F)F [Compound 35] |

| SMILES | inhibition at 100 µM |
| --- | --- |
| CC(C)(C)c1ccc(OCC(=O)NC[Si](C)(C)C)cc1 [Compound 17, 2-(4-tert-Butyl-phenoxy)-N-trimethylsilanylmethyl-acetamide] | 50% |
| C[Si](C)(C)CNC(=O)COCc1ccccc1 [Compound 18, 2-Benzyloxy-N-trimethylsilanylmethyl-acetamide] | 88% |
| C[Si](C)(C)CNC(=O)COc1ccccc1 [Compound 19, 2-Phenoxy-N-trimethylsilanylmethyl-acetamide] | 95% |

molecular target: T2, PGF synthase (Homo sapiens, UniProt P42330); test: Test on PGF synthase (spectrophotometric, 340 nm, maximum reaction rate); type: biochemical; conditions: IC50fs; 37° C., pH 6.5; read-out: Inhibition of PGFS IC50
T2 construct: made in house
T2 sequence (P42330 1-323): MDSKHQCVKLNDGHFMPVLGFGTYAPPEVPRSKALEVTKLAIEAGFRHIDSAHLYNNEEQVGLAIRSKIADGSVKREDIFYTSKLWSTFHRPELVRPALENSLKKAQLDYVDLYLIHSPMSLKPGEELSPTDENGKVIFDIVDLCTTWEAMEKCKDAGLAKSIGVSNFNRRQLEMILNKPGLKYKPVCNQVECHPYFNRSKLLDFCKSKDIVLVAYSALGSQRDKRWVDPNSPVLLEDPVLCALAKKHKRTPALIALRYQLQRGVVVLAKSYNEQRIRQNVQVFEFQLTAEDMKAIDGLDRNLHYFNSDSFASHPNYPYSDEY
Description: as §1
as §2, with “0.950 mL” for “0.965 ml”, “0.05 mL” for “0.035 ml”, “a reduction” for “an increase”

| IC50 | SMILES |
| --- | --- |
| > 50 µM | O=C(COc1cccc(Cl)c1)NCc1ccco1 [Compound 23] |

same assay, conditions: compound at 50 μM; read-out: Inhibition of PGFS % inhibition at 50 μM

| inhibition at 50 µM | SMILES |
| --- | --- |
| 24% | O=C(COC1CCCCC1)NCc1ccccc1 [Compound 21] |
| 25% | O=C(COc1cccc(Cl)c1)NCc1ccco1 [Compound 23] |
| 4% | O=C(COc1ccccc1)NCc1ccccc1 [Compound 24] |
